Assay results from patent publication US7732431B2, “Pharmaceutical compositions comprising trimegestone” (aventis pharma SA, priority 1999, dated 2010).

Assay: Storage stability and light sensitivity of trimegestone in powder form
Format: physicochemical
Method: Trimegestone is thus a molecule which is in itself stable. However, stability problems can appear during the preparation of tablets or if conventional pharmaceutical compositions comprising trimegestone are stored at 40° C. (dry or damp medium) or under more severe conditions. In particular, the appearance of (20S)-17alpha-methyl-7beta-(1-hydroxy-2-oxo-propyl)-oestra-4,9-dien-3-one, the 21R epimer of trimegestone, or even of oxopromegestone is observed under these conditions.

## C[C@H](O)C(=O)[C@@]1(C)CC[C@H]2[C@@H]3CCC4=CC(=O)CCC4=C3CC[C@@]21C [Trimegestone, (21S)-17alpha-methyl-17beta-(2-hydroxy-1-oxo-propyl)-oestra-4,9-dien-3-one]
  Sensitivity to light: very low sensitivity to light
3 months at 70° C. under an inert gas
  Stability after storage: stable
6 months in a glass pill box at 50° C.
  Stability after storage: stable
